Where “and” joins values, the source holds several entries; their conditions need not be identical. Identical values can stand only once. Toxic doses and inconclusive results are not listed. Rule for the calls: active = survival T/C of 150% or more; inactive = T/C below 125% in these data.
Tested on: CD2F1 mice, L1210 leukemia ip, survival T/C
Assay: NCI In Vivo Anticancer Drug Screen. Data for tumor model L1210 Leukemia (intraperitoneal) in CD2F1 (CDF1) mice
Conditions: higher = longer survival
Method in brief: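 Each value reflects a quotient of treated over vehicle control outcomes in mice with a transplanted tumor.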

[1] = endpoint: mean survival time, dose: 100.0 mg/kg/injection, schedule: Q01DX001 (ip), vehicle: saline
[2] = endpoint: mean survival time, dose: 100.0 mg/kg/injection, schedule: Q04DX002 (ip), vehicle: saline
[3] = endpoint: mean survival time, dose: 100.0 mg/kg/injection, schedule: Q04DX003 (ip), vehicle: saline with Tween-80
[4] = endpoint: mean survival time, dose: 200.0 mg/kg/injection, schedule: Q01DX001 (ip), vehicle: saline
[5] = endpoint: mean survival time, dose: 200.0 mg/kg/injection, schedule: Q04DX002 (ip), vehicle: saline
[6] = endpoint: mean survival time, dose: 200.0 mg/kg/injection, schedule: Q04DX003 (ip), vehicle: saline with Tween-80
[7] = endpoint: mean survival time, dose: 400.0 mg/kg/injection, schedule: Q01DX001 (ip), vehicle: saline
[8] = endpoint: mean survival time, dose: 400.0 mg/kg/injection, schedule: Q04DX003 (ip), vehicle: saline with Tween-80
[9] = endpoint: mean survival time, dose: 100.0 mg/kg/injection, schedule: Q01DX009 (ip), vehicle: saline with Tween-80
[10] = endpoint: mean survival time, dose: 200.0 mg/kg/injection, schedule: Q01DX009 (ip), vehicle: saline with Tween-80

Measured: T/C

O=CNc1ccc(C(=O)O)c(O)c1
inactive: [1] 95 % of control | endpoint: mean survival time, dose: 100.0 mg/kg/injection, schedule: Q01DX009 (ip), vehicle: saline 94 % of control and 95 % of control | [2] 97 % of control | [3] 100 % of control | [4] 100 % of control and 106 % of control | endpoint: mean survival time, dose: 200.0 mg/kg/injection, schedule: Q01DX009 (ip), vehicle: saline 96 % of control and 98 % of control | [5] 86 % of control and 94 % of control | [6] 98 % of control | [7] 88 % of control and 92 % of control | endpoint: mean survival time, dose: 400.0 mg/kg/injection, schedule: Q01DX009 (ip), vehicle: saline 100 % of control | endpoint: mean survival time, dose: 400.0 mg/kg/injection, schedule: Q04DX002 (ip), vehicle: saline 92 % of control and 108 % of control | [8] 98 % of control

CC(=NCc1ccccc1)C(C)(O)c1ccccc1 (stereo not drawn)
inactive: [1] 107 % of control | [4] 101 % of control | [7] 96 % of control

C#CCOCCC(=O)O
inactive: endpoint: mean survival time, dose: 50.0 mg/kg/injection, schedule: Q01DX009 (ip), vehicle: acetone 102 % of control | endpoint: mean survival time, dose: 100.0 mg/kg/injection, schedule: Q01DX009 (ip), vehicle: acetone 100 % of control | endpoint: mean survival time, dose: 200.0 mg/kg/injection, schedule: Q01DX009 (ip), vehicle: acetone 97 % of control

COc1cc(CO)ccc1OCc1ccccc1
inactive: [3] 98 % of control | [6] 96 % of control | [8] 105 % of control

CC(=O)N(c1nc(Cl)c2cc[nH]c2n1)C1OC(CO)C(O)C1O (stereo not drawn)
inactive: endpoint: mean survival time, dose: 12.5 mg/kg/injection, schedule: Q01DX005 (ip), vehicle: water 100 % of control | endpoint: mean survival time, dose: 25.0 mg/kg/injection, schedule: Q01DX005 (ip), vehicle: water 100 % of control | endpoint: mean survival time, dose: 50.0 mg/kg/injection, schedule: Q01DX005 (ip), vehicle: water 101 % of control | endpoint: mean survival time, dose: 100.0 mg/kg/injection, schedule: Q01DX005 (ip), vehicle: water 101 % of control | endpoint: mean survival time, dose: 200.0 mg/kg/injection, schedule: Q01DX005 (ip), vehicle: water 103 % of control

COc1cc2c(cc1OC)C(=O)C(C)(c1ccccc1)NC2 (stereo not drawn)
inactive: [3] 96 % of control | [6] 96 % of control | [8] 94 % of control

O=C(CNC(=O)Nc1cccc(C(F)(F)F)c1)N/N=C/c1ccccc1Cl
inactive: endpoint: mean survival time, dose: 12.5 mg/kg/injection, schedule: Q01DX009 (ip), vehicle: saline with Tween-80 87 % of control | endpoint: mean survival time, dose: 25.0 mg/kg/injection, schedule: Q01DX009 (ip), vehicle: saline with Tween-80 87 % of control | endpoint: mean survival time, dose: 50.0 mg/kg/injection, schedule: Q01DX009 (ip), vehicle: saline with Tween-80 87 % of control and 96 % of control | [9] 103 % of control | [10] 100 % of control

CCOC(=O)C(N)CSCc1ccccc1 (stereo not drawn)
inactive: endpoint: mean survival time, dose: 100.0 mg/kg/injection, schedule: Q04DX003 (ip), vehicle: saline 103 % of control | endpoint: mean survival time, dose: 200.0 mg/kg/injection, schedule: Q04DX003 (ip), vehicle: saline 97 % of control | endpoint: mean survival time, dose: 400.0 mg/kg/injection, schedule: Q04DX003 (ip), vehicle: saline 101 % of control

CC(=O)OC1CCC2(C)C(CCC3(C)C2CC=C2C4CC(C)(C)CCC4(C)CCC23C)C1(C)C (stereo not drawn)
inactive: [1] 101 % of control | [4] 101 % of control | [7] 101 % of control

O=C(COc1ccc(Cl)cc1)C1CSc2c(Cl)ccc(Cl)c21 (stereo not drawn)
inactive: [3] 92 % of control | [6] 98 % of control | [8] 101 % of control

N=C(N)c1ccc(Nc2ccc(C(=N)N)cc2)cc1
inactive: endpoint: mean survival time, dose: 3.0 mg/kg/injection, schedule: Q01DX009 (ip), vehicle: saline 96 % of control and 100 % of control | endpoint: mean survival time, dose: 6.0 mg/kg/injection, schedule: Q01DX009 (ip), vehicle: saline 100 % of control and 101 % of control | endpoint: mean survival time, dose: 12.0 mg/kg/injection, schedule: Q01DX009 (ip), vehicle: saline 93 % of control and 95 % of control | endpoint: mean survival time, dose: 24.0 mg/kg/injection, schedule: Q01DX009 (ip), vehicle: saline 98 % of control

CCN(CC)c1ccc2cc(-c3nc4ccccc4n3C)c(=O)oc2c1
inactive: endpoint: mean survival time, dose: 3.13 mg/kg/injection, schedule: Q01DX009 (ip), vehicle: Klucel (hydroxypropylcellulose) (HPC) 90 % of control | endpoint: mean survival time, dose: 6.25 mg/kg/injection, schedule: Q01DX009 (ip), vehicle: Klucel (hydroxypropylcellulose) (HPC) 91 % of control and 93 % of control and 96 % of control | endpoint: mean survival time, dose: 12.5 mg/kg/injection, schedule: Q01DX009 (ip), vehicle: Klucel (hydroxypropylcellulose) (HPC) 93 % of control and 96 % of control and 103 % of control | endpoint: mean survival time, dose: 50.0 mg/kg/injection, schedule: Q01DX009 (ip), vehicle: Klucel (hydroxypropylcellulose) (HPC) 120 % of control and 121 % of control and 103 % of control

O=C(Nc1cccc(Cl)c1)c1c[nH]c2cc(Cl)ccc2c1=O
inactive: [9] 101 % of control | [3] 96 % of control | [10] 95 % of control | [6] 93 % of control | endpoint: mean survival time, dose: 400.0 mg/kg/injection, schedule: Q01DX009 (ip), vehicle: saline with Tween-80 101 % of control | [8] 93 % of control

COc1ccc(OC)c(OC)c1CC(C)N (stereo not drawn)
inactive: endpoint: mean survival time, dose: 25.0 mg/kg/injection, schedule: Q04DX002 (ip), vehicle: saline 108 % of control | endpoint: mean survival time, dose: 50.0 mg/kg/injection, schedule: Q04DX002 (ip), vehicle: saline 97 % of control | [2] 91 % of control and 97 % of control

ClCc1cnc[nH]1
inactive: [2] 103 % of control | [5] 96 % of control

CCN(CC)c1ccc(N=Nc2cc(Cl)ccc2Cl)c(NC(=O)CSC(C)=O)c1
inactive: endpoint: mean survival time, dose: 100.0 mg/kg/injection, schedule: Q04DX003 (ip), vehicle: other 94 % of control | endpoint: mean survival time, dose: 200.0 mg/kg/injection, schedule: Q04DX003 (ip), vehicle: other 100 % of control | endpoint: mean survival time, dose: 400.0 mg/kg/injection, schedule: Q04DX003 (ip), vehicle: other 97 % of control

Cc1ccc(-n2c(=S)[nH]c3ccccc3c2=O)cc1
inactive: [3] 100 % of control

Cc1ccc(NC(=O)OCCSC(=O)COc2ccc(Cl)cc2Cl)cc1
inactive: [3] 98 % of control | [6] 98 % of control | [8] 93 % of control

COC1(O)C(=O)c2ccccc2OC1(OC)c1ccc(C)cc1 (stereo not drawn)
inactive: endpoint: mean survival time, dose: 50.0 mg/kg/injection, schedule: Q01DX001 (ip), vehicle: saline 102 % of control | [1] 98 % of control | [4] 96 % of control | [7] 98 % of control

O=C/C=C/C=C/C=C/c1ccccc1
inactive: endpoint: mean survival time, dose: 62.5 mg/kg/injection, schedule: Q01DX001 (ip), vehicle: distilled water + alcohol 93 % of control | endpoint: mean survival time, dose: 125.0 mg/kg/injection, schedule: Q01DX001 (ip), vehicle: distilled water + alcohol 96 % of control | endpoint: mean survival time, dose: 250.0 mg/kg/injection, schedule: Q01DX001 (ip), vehicle: distilled water + alcohol 92 % of control | endpoint: mean survival time, dose: 500.0 mg/kg/injection, schedule: Q01DX001 (ip), vehicle: distilled water + alcohol 90 % of control | endpoint: median survival time, dose: 50.0 mg/kg/injection, schedule: Q01DX009 (ip), vehicle: saline 98 % of control | endpoint: median survival time, dose: 100.0 mg/kg/injection, schedule: Q01DX009 (ip), vehicle: saline 106 % of control | endpoint: median survival time, dose: 200.0 mg/kg/injection, schedule: Q01DX009 (ip), vehicle: saline 100 % of control | endpoint: median survival time, dose: 400.0 mg/kg/injection, schedule: Q01DX009 (ip), vehicle: saline 101 % of control | endpoint: median survival time, dose: 800.0 mg/kg/injection, schedule: Q01DX009 (ip), vehicle: saline 100 % of control

Cc1ccc(S(=O)(=O)N2CCC(=O)c3ccc(Cl)cc32)cc1
inactive: endpoint: mean survival time, dose: 100.0 mg/kg/injection, schedule: Q01DX009 (ip), vehicle: Klucel (hydroxypropylcellulose) (HPC) 101 % of control | endpoint: mean survival time, dose: 200.0 mg/kg/injection, schedule: Q01DX009 (ip), vehicle: Klucel (hydroxypropylcellulose) (HPC) 93 % of control | endpoint: mean survival time, dose: 400.0 mg/kg/injection, schedule: Q01DX009 (ip), vehicle: Klucel (hydroxypropylcellulose) (HPC) 96 % of control

CN(C)CC1CCC/C(=C\C=C\c2ccccc2)C1=O (stereo not drawn)
inactive: endpoint: mean survival time, dose: 12.5 mg/kg/injection, schedule: Q04DX003 (ip), vehicle: Klucel (hydroxypropylcellulose) (HPC) 100 % of control | endpoint: mean survival time, dose: 25.0 mg/kg/injection, schedule: Q04DX003 (ip), vehicle: Klucel (hydroxypropylcellulose) (HPC) 103 % of control | endpoint: mean survival time, dose: 50.0 mg/kg/injection, schedule: Q04DX003 (ip), vehicle: Klucel (hydroxypropylcellulose) (HPC) 94 % of control

From PubChem BioAssay AID256 (DTP/NCI, 2004)
